Measurements: PMC5218480 (PLoS ONE, 2017)

System: MV-4-11 cells
Experiment: Gene expression microarray analysis (Affymetrix PrimeView) and GSEA
Format: cell-based, human
Parameters: RFU PODN (11730768_x_at) / Fold change /veh PODN (11730768_x_at) / RFU LINC00158 (11744669_a_at) / Fold change /veh LINC00158 (11744669_a_at) / RFU DUSP10 (11751237_a_at) / Fold change /veh DUSP10 (11751237_a_at) / RFU ID3 (11757404_x_at) / Fold change /veh ID3 (11757404_x_at) / RFU PLEKHG5 (11737974_s_at) / Fold change /veh PLEKHG5 (11737974_s_at) / RFU LRRC4B (11730491_at) / Fold change /veh LRRC4B (11730491_at) / RFU GIMAP4 (11747438_a_at) / Fold change /veh GIMAP4 (11747438_a_at) / RFU KRT8 (11758183_x_at) / Fold change /veh KRT8 (11758183_x_at) / RFU CNN1 (11734310_a_at) / Fold change /veh CNN1 (11734310_a_at) / RFU VPS37D (11726825_at) / Fold change /veh VPS37D (11726825_at) / RFU C10orf10 (11716522_x_at) / Fold change /veh C10orf10 (11716522_x_at) / RFU KIR2DL2 /// KIR2DL4 /// KIR2DL5A /// KIR2DL5B /// KIR2DS1 /// KIR2DS2 /// KIR2DS3 /// KIR2DS4 /// KIR3DL3 /// KIR3DL3 /// KIR3DS1 (11738374_at) / Fold change /veh KIR2DL2 /// KIR2DL4 /// KIR2DL5A /// KIR2DL5B /// KIR2DS1 /// KIR2DS2 /// KIR2DS3 /// KIR2DS4 /// KIR3DL3 /// KIR3DL3 /// KIR3DS1 (11738374_at) / RFU C1QL1 (11718748_at) / Fold change /veh C1QL1 (11718748_at) / RFU TMPRSS4 (11747572_a_at) / Fold change /veh TMPRSS4 (11747572_a_at) / RFU HAMP (11756126_x_at) / Fold change /veh HAMP (11756126_x_at) / RFU RNFT2 (11725882_a_at) / Fold change /veh RNFT2 (11725882_a_at) / RFU NR4A2 (11747474_a_at) / Fold change /veh NR4A2 (11747474_a_at) / RFU ABCC12 (11746883_a_at) / Fold change /veh ABCC12 (11746883_a_at) / RFU TMEM136 (11760407_x_at) / Fold change /veh TMEM136 (11760407_x_at) / RFU CLDN22 /// WWC2 (11732394_at) / Fold change /veh CLDN22 /// WWC2 (11732394_at) / RFU HLA-DPB1 (11760878_x_at) / Fold change /veh HLA-DPB1 (11760878_x_at) / RFU SPINT1 (11716480_a_at) / Fold change /veh SPINT1 (11716480_a_at) / RFU GAP43 (11754022_s_at) / Fold change /veh GAP43 (11754022_s_at) / RFU A4GNT (11735810_at) / Fold change /veh A4GNT (11735810_at) / RFU PRB3 (11715151_x_at) / Fold change /veh PRB3 (11715151_x_at) / RFU TUBB4B (11761932_at) / Fold change /veh TUBB4B (11761932_at) / RFU CAPN14 (11732068_a_at) / Fold change /veh CAPN14 (11732068_a_at) / RFU TMCC2 (11721928_a_at) / Fold change /veh TMCC2 (11721928_a_at) / RFU IRGQ (11745062_a_at) / Fold change /veh IRGQ (11745062_a_at) / RFU FAM174B (11720279_a_at) / Fold change /veh FAM174B (11720279_a_at) / RFU TMPRSS4 (11748680_a_at) / Fold change /veh TMPRSS4 (11748680_a_at) / RFU FAM212B (11763350_a_at) / Fold change /veh FAM212B (11763350_a_at) / RFU PLEKHG5 (11743358_a_at) / Fold change /veh PLEKHG5 (11743358_a_at) / RFU ZSCAN30 (11745921_a_at) / Fold change /veh ZSCAN30 (11745921_a_at) / RFU CMKLR1 (11741424_a_at) / Fold change /veh CMKLR1 (11741424_a_at) / RFU LOC101060620 /// MAPK8IP1 (11723275_at) / Fold change /veh LOC101060620 /// MAPK8IP1 (11723275_at) / RFU SPTSSB (11747773_x_at) / Fold change /veh SPTSSB (11747773_x_at) / RFU PRSS12 (11739890_at) / Fold change /veh PRSS12 (11739890_at) / RFU BIN1 (11741810_x_at) / Fold change /veh BIN1 (11741810_x_at) / RFU WNT11 (11732464_a_at) / Fold change /veh WNT11 (11732464_a_at) / RFU C10orf10 (11716521_a_at) / Fold change /veh C10orf10 (11716521_a_at) / RFU C5orf56 (11738089_at) / Fold change /veh C5orf56 (11738089_at) / RFU CYB561 (11721691_x_at) / Fold change /veh CYB561 (11721691_x_at) / RFU ANKRD19P (11752326_a_at) / Fold change /veh ANKRD19P (11752326_a_at) / RFU OR2T12 /// OR2T33 /// OR2T8 (11738714_s_at) / Fold change /veh OR2T12 /// OR2T33 /// OR2T8 (11738714_s_at) / RFU VCAN (11748164_a_at) / Fold change /veh VCAN (11748164_a_at) / RFU JSRP1 (11732532_at) / Fold change /veh JSRP1 (11732532_at) / RFU KRTAP10-11 (11738290_x_at) / Fold change /veh KRTAP10-11 (11738290_x_at) / RFU MYO3A (11730013_a_at) / Fold change /veh MYO3A (11730013_a_at) / RFU EBF3 (11725865_a_at) / Fold change /veh EBF3 (11725865_a_at) / RFU CAMK2N1 (11719241_x_at) / Fold change /veh CAMK2N1 (11719241_x_at) / RFU C5orf56 (11738088_a_at) / Fold change /veh C5orf56 (11738088_a_at) / RFU OLFML3 (11715873_a_at) / Fold change /veh OLFML3 (11715873_a_at) / RFU LOC100653217 /// NTM (11731650_a_at) / Fold change /veh LOC100653217 /// NTM (11731650_a_at) / RFU MAPK11 (11762145_a_at) / Fold change /veh MAPK11 (11762145_a_at) / RFU FIZ1 (11724087_x_at) / Fold change /veh FIZ1 (11724087_x_at) / RFU OASL (11726364_x_at) / Fold change /veh OASL (11726364_x_at) / RFU SOX15 (11748057_x_at) / Fold change /veh SOX15 (11748057_x_at) / RFU CD79A (11719716_a_at) / Fold change /veh CD79A (11719716_a_at) / RFU HIST1H1D (11736915_at) / Fold change /veh HIST1H1D (11736915_at) / RFU CASKIN2 (11723855_a_at) / Fold change /veh CASKIN2 (11723855_a_at) / RFU LOC730098 (11760151_x_at) / Fold change /veh LOC730098 (11760151_x_at) / RFU OR4N2 (11742367_at) / Fold change /veh OR4N2 (11742367_at) / RFU PRRT2 (11749266_a_at) / Fold change /veh PRRT2 (11749266_a_at) / RFU SNX32 (11753110_a_at) / Fold change /veh SNX32 (11753110_a_at) / RFU CDHR5 (11726645_a_at) / Fold change /veh CDHR5 (11726645_a_at) / RFU RCAN1 (11760418_a_at) / Fold change /veh RCAN1 (11760418_a_at) / RFU FAM167A (11723789_a_at) / Fold change /veh FAM167A (11723789_a_at) / RFU FAM26E (11764081_at) / Fold change /veh FAM26E (11764081_at) / RFU ISYNA1 (11749810_s_at) / Fold change /veh ISYNA1 (11749810_s_at) / RFU ACY1 (11761880_at) / Fold change /veh ACY1 (11761880_at) / RFU 11764098_at / Fold change /veh 11764098_at / RFU SAMD14 (11745864_x_at) / Fold change /veh SAMD14 (11745864_x_at) / RFU NPB (11741838_a_at) / Fold change /veh NPB (11741838_a_at) / RFU TMPRSS6 (11731388_a_at) / Fold change /veh TMPRSS6 (11731388_a_at) / RFU KRTAP10-2 (11738614_at) / Fold change /veh KRTAP10-2 (11738614_at) / RFU ARHGAP8 /// PRR5-ARHGAP8 (11727945_x_at) / Fold change /veh ARHGAP8 /// PRR5-ARHGAP8 (11727945_x_at) / RFU KRTAP5-7 /// NADSYN1 (11734609_at) / Fold change /veh KRTAP5-7 /// NADSYN1 (11734609_at) / RFU RASL12 (11751679_a_at) / Fold change /veh RASL12 (11751679_a_at) / RFU CDKN2B (11736163_a_at) / Fold change /veh CDKN2B (11736163_a_at) / RFU PRF1 (11729649_at) / Fold change /veh PRF1 (11729649_at) / RFU, ZNF638 /// ZNF638-IT1 / Fold change vs veh, ZNF638 /// ZNF638-IT1 / RFU, PANK3 / Fold change vs veh, PANK3 / RFU, SH3YL1 / Fold change vs veh, SH3YL1 / RFU, ZEB2 / Fold change vs veh, ZEB2 / RFU, NRIP1 / Fold change vs veh, NRIP1 / RFU, PTTG1IP / Fold change vs veh, PTTG1IP / RFU, CAPN2 / Fold change vs veh, CAPN2 / RFU, MED14 / Fold change vs veh, MED14 / RFU, SNORA58 / Fold change vs veh, SNORA58 / RFU, C1orf63 / Fold change vs veh, C1orf63 / RFU, LRRFIP1 / Fold change vs veh, LRRFIP1 / RFU, NDUFAF7 / Fold change vs veh, NDUFAF7 / RFU, SLC12A2 / Fold change vs veh, SLC12A2 / RFU, IBTK / Fold change vs veh, IBTK / RFU, ESF1 / Fold change vs veh, ESF1 / Fold change vs veh, TMEM50B / RFU, TAOK1 / Fold change vs veh, TAOK1 / RFU, ACBD3 / Fold change vs veh, ACBD3 / RFU, TMA16 / Fold change vs veh, TMA16 / RFU, RWDD3 / Fold change vs veh, RWDD3 / RFU, BCAT1 / Fold change vs veh, BCAT1 / RFU, EDEM3 / Fold change vs veh, EDEM3 / RFU, TMEM33 / Fold change vs veh, TMEM33 / RFU, WDR75 / Fold change vs veh, WDR75 / RFU, AHCTF1 / Fold change vs veh, AHCTF1 / RFU, TFRC / Fold change vs veh, TFRC / RFU, ZDHHC17 / Fold change vs veh, ZDHHC17 / RFU, NOM1 / Fold change vs veh, NOM1 / RFU, ARL8B / Fold change vs veh, ARL8B / RFU, ZBTB11 / Fold change vs veh, ZBTB11 / RFU, TAMM41 / Fold change vs veh, TAMM41 / RFU, KIAA1704 /// LOC100996395 / Fold change vs veh, KIAA1704 /// LOC100996395 / RFU, ING1 / Fold change vs veh, ING1 / RFU, TRMT61B / Fold change vs veh, TRMT61B / RFU, FUBP3 / Fold change vs veh, FUBP3 / RFU, TP53 / Fold change vs veh, TP53 / RFU, TNKS2 / Fold change vs veh, TNKS2 / RFU, ZFP14 / Fold change vs veh, ZFP14 / RFU, ACTR2 / Fold change vs veh, ACTR2 / RFU, PPP3R1 / Fold change vs veh, PPP3R1 / RFU, PIK3R1 / Fold change vs veh, PIK3R1 / RFU, HNRNPA1 / Fold change vs veh, HNRNPA1 / RFU, RNF170 / Fold change vs veh, RNF170 / RFU, ZNF28 / Fold change vs veh, ZNF28 / RFU, RNGTT / Fold change vs veh, RNGTT / RFU, OGT / Fold change vs veh, OGT / RFU, BRD1 / Fold change vs veh, BRD1 / RFU, MARS / Fold change vs veh, MARS / RFU, ZNF655 / Fold change vs veh, ZNF655 / RFU, FAHD1 / Fold change vs veh, FAHD1 / RFU, BDP1 / Fold change vs veh, BDP1 / RFU, LRRCC1 / Fold change vs veh, LRRCC1 / RFU, ARID1A / Fold change vs veh, ARID1A / RFU, ZNF146 / Fold change vs veh, ZNF146 / RFU, ZNF330 / Fold change vs veh, ZNF330 / RFU, GPN3 / Fold change vs veh, GPN3 / RFU, C9orf123 / Fold change vs veh, C9orf123 / RFU, N4BP2L2 / Fold change vs veh, N4BP2L2 / RFU, ARFIP1 / Fold change vs veh, ARFIP1 / RFU, FAM179B / Fold change vs veh, FAM179B / RFU, BCL10 / Fold change vs veh, BCL10 / RFU, UHRF1BP1L / Fold change vs veh, UHRF1BP1L / RFU, BET1 / Fold change vs veh, BET1 / RFU, CNOT2 / Fold change vs veh, CNOT2 / RFU, ZNF268 / Fold change vs veh, ZNF268 / Fold change vs veh, ZNF507 / RFU, DGCR2 / Fold change vs veh, DGCR2 / RFU, WDSUB1 / Fold change vs veh, WDSUB1 / Fold change vs veh, HSP90B1 /// MIR3652 / RFU, ADSS / Fold change vs veh, ADSS / RFU, GK / Fold change vs veh, GK / RFU, ZNF148 / Fold change vs veh, ZNF148 / RFU, TAF9 / Fold change vs veh, TAF9 / RFU, SLC1A5 / Fold change vs veh, SLC1A5 / RFU, SLMO2 / Fold change vs veh, SLMO2 / RFU, ABCC4 / Fold change vs veh, ABCC4 / RFU, LOC101060439 /// RAP1B / Fold change vs veh, LOC101060439 /// RAP1B / RFU, RFX7 / Fold change vs veh, RFX7 / RFU, GTPBP10 / Fold change vs veh, GTPBP10 / RFU, CNEP1R1 / Fold change vs veh, CNEP1R1 / RFU, BIVM-ERCC5 /// ERCC5 / Fold change vs veh, BIVM-ERCC5 /// ERCC5 / RFU, ILF3 / Fold change vs veh, ILF3 / RFU 11762660_at / Fold change /veh 11762660_at / RFU VCAN (11757783_s_at) / Fold change /veh VCAN (11757783_s_at) / RFU DDX43 (11728927_at) / Fold change /veh DDX43 (11728927_at) / RFU KRT8 (11758188_x_at) / Fold change /veh KRT8 (11758188_x_at) / RFU NKD1 (11759106_at) / Fold change /veh NKD1 (11759106_at) / RFU SRD5A1 (11742802_a_at) / Fold change /veh SRD5A1 (11742802_a_at) / RFU TPSAB1 /// TPSB2 (11721975_s_at) / Fold change /veh TPSAB1 /// TPSB2 (11721975_s_at) / RFU GSTM3 (11746129_a_at) / Fold change /veh GSTM3 (11746129_a_at) / RFU IL23R (11737362_x_at) / Fold change /veh IL23R (11737362_x_at) / RFU TMEM51 (11727254_a_at) / Fold change /veh TMEM51 (11727254_a_at) / RFU PIWIL2 (11732686_x_at) / Fold change /veh PIWIL2 (11732686_x_at) / RFU ORM1 (11744905_x_at) / Fold change /veh ORM1 (11744905_x_at) / RFU CCDC152 (11743942_at) / Fold change /veh CCDC152 (11743942_at) / RFU ECM1 (11717891_a_at) / Fold change /veh ECM1 (11717891_a_at) / RFU IL23R (11748794_a_at) / Fold change /veh IL23R (11748794_a_at) / RFU TNFAIP8L3 (11732012_x_at) / Fold change /veh TNFAIP8L3 (11732012_x_at) / RFU MBOAT4 (11741988_at) / Fold change /veh MBOAT4 (11741988_at) / RFU 11764193_at / Fold change /veh 11764193_at / RFU TMEM53 (11763286_at) / Fold change /veh TMEM53 (11763286_at) / RFU MAGEB2 (11727129_at) / Fold change /veh MAGEB2 (11727129_at) / RFU TMEM200A (11744735_a_at) / Fold change /veh TMEM200A (11744735_a_at) / RFU CCDC152 (11751479_a_at) / Fold change /veh CCDC152 (11751479_a_at) / RFU FAM211A (11726209_a_at) / Fold change /veh FAM211A (11726209_a_at) / RFU RGS16 (11746705_a_at) / Fold change /veh RGS16 (11746705_a_at) / RFU VCAN (11755009_s_at) / Fold change /veh VCAN (11755009_s_at) / RFU RHOB (11743442_s_at) / Fold change /veh RHOB (11743442_s_at) / RFU RGS16 (11720943_a_at) / Fold change /veh RGS16 (11720943_a_at) / RFU RGS16 (11720944_at) / Fold change /veh RGS16 (11720944_at) / RFU, VPS4B / Fold change vs veh, VPS4B / RFU, CREB1 / Fold change vs veh, CREB1 / RFU, DNAJC13 / Fold change vs veh, DNAJC13 / RFU, GNAQ / Fold change vs veh, GNAQ / RFU, CDK5R1 / Fold change vs veh, CDK5R1 / RFU, ZRANB3 / Fold change vs veh, ZRANB3 / RFU, CUL4A / Fold change vs veh, CUL4A / RFU, CCNY / Fold change vs veh, CCNY / RFU, UFL1 / Fold change vs veh, UFL1 / RFU, COG3 / Fold change vs veh, COG3 / RFU, DIAPH2 / Fold change vs veh, DIAPH2 / RFU, SKA2 / Fold change vs veh, SKA2 / RFU, AFF3 / Fold change vs veh, AFF3 / RFU, LMF1 / Fold change vs veh, LMF1 / RFU, IPO11 / Fold change vs veh, IPO11 / RFU, DFFB / Fold change vs veh, DFFB / RFU, FOXP1 / Fold change vs veh, FOXP1 / RFU, CARD8 / Fold change vs veh, CARD8 / RFU, STRN3 / Fold change vs veh, STRN3 / RFU, ADK / Fold change vs veh, ADK / RFU, RASSF2 / Fold change vs veh, RASSF2 / RFU, WIPF1 / Fold change vs veh, WIPF1 / RFU, LARP1B / Fold change vs veh, LARP1B / RFU, RASA1 / Fold change vs veh, RASA1 / RFU, RB1 / Fold change vs veh, RB1 / RFU, PPFIA1 / Fold change vs veh, PPFIA1 / RFU, MAT2A / Fold change vs veh, MAT2A / RFU, CCT5 / Fold change vs veh, CCT5 / RFU, WDR92 / Fold change vs veh, WDR92 / RFU, CUX1 / Fold change vs veh, CUX1 / RFU, TTC7A / Fold change vs veh, TTC7A / RFU, TMEM135 / Fold change vs veh, TMEM135 / RFU, DEPTOR / Fold change vs veh, DEPTOR / RFU, CPM / Fold change vs veh, CPM / RFU, DNAJB6 / Fold change vs veh, DNAJB6 / RFU, CACNA2D3 / Fold change vs veh, CACNA2D3 / RFU, DTX4 / Fold change vs veh, DTX4 / RFU, TFCP2 / Fold change vs veh, TFCP2 / RFU, GMCL1 /// GMCL1P1 / Fold change vs veh, GMCL1 /// GMCL1P1 / RFU, AEBP2 / Fold change vs veh, AEBP2 / RFU, SNHG1 /// SNORD22 /// SNORD25 /// SNORD26 /// SNORD27 /// SNORD28 /// SNORD29 /// SNORD31 / Fold change vs veh, SNHG1 /// SNORD22 /// SNORD25 /// SNORD26 /// SNORD27 /// SNORD28 /// SNORD29 /// SNORD31 / Fold change (Aza/veh), C12orf56 (ProbeSet 11735607_a_at) / Fold change (ACY-1035/veh), C12orf56 (ProbeSet 11735607_a_at) / Fold change (Aza/veh), FGFR1OP (ProbeSet 11751329_s_at) / Fold change (ACY-1035/veh), FGFR1OP (ProbeSet 11751329_s_at) / Fold change (Aza/veh), VPS36 (ProbeSet 11739960_a_at) / Fold change (ACY-1035/veh), VPS36 (ProbeSet 11739960_a_at) / RFU SYPL1 (11715823_x_at) / Fold change /veh SYPL1 (11715823_x_at) / RFU IGFBP7 (11715501_s_at) / Fold change /veh IGFBP7 (11715501_s_at) / RFU REEP3 (11722064_at) / Fold change /veh REEP3 (11722064_at) / RFU IGLL1 (11728026_x_at) / Fold change /veh IGLL1 (11728026_x_at): dose or concentration left out as unconfirmed
Conditions: MV-4-11 cells, 48 hours

**Q.** How did the “Fold change /veh TMPRSS4 (11747572_a_at)” value turn out when `Nc1ncn([C@@H]2O[C@H](CO)[C@@H](O)[C@H]2O)c(=O)n1` [azacitidine] was run?
**A.** Its value is 1.01.
